{
  "source": "patent US10813981B2",
  "about": "“Saposin B binds the lipofuscin bisretinoid A2E and prevents its enzymatic and photo degradation” (Syracuse University, priority 2017, dated 2020)",
  "key": {"[1]": {"tested_on": "retinoic acid receptor (RAR)", "details": "cited from earlier work"}, "HRP [2]": {"molecular_target": "T1, HRP (Armoracia rusticana, UniProt P00433)", "T1 sequence (P00433 31-338)": "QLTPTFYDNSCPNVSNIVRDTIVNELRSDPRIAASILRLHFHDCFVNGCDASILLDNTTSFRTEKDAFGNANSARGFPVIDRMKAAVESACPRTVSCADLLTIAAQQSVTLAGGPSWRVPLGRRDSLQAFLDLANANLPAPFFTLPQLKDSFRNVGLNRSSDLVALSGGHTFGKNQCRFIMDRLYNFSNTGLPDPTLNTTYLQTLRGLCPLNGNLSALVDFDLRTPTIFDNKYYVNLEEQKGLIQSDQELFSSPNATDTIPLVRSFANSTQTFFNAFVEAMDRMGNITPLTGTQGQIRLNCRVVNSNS", "test": "A2E degradation by HRP/H2O2, absorbance kinetics at 340 nm", "assay_type": "biochemical", "excerpt": "Horseradish peroxidase (HRP) is reported to cleave the bis-retinoid A2E. Thus, the ability of SapB to protect A2E from oxidative transformations by HRP was investigated.\nIn classic peroxidases, it is believed that reaction with hydrogen peroxide gives rise to two oxidizing equivalents (i.e. a porphyrin radical-cation and an Fe(IV)-oxo (ferryl) species) due to exposure of the prosthetic heme group to the bulk solution. […] Having established the presence of two different binding sites on SapB (one for A2E and one for CoQ10), the ability of SapB to protect A2E in the presence of CoQ10 was tested.\n(§1) Conventional ultraviolet visible spectroscopy was performed on a Varian Cary 50 Bio spectrophotometer from Agilent Technologies. The stock solutions of various reagents were prepared as follow: HRP in DI water, A2E in DMSO, SapB in 50 mM phosphate buffer, pH 5.5, CoQ10 in THF (tetrahydrofurane) and 3% H2O2 solution diluted in DI water from an initial stock at 30%. The 340 nm kinetic experiments were monitored every 5 minutes for a total of 400 min following the sequential addition of all reagents as indicated in FIG. 4. The HRP solution of FIG. 5 was prepared in 20 mM phosphate buffer, 1% tween, pH 5.5, 25° C. All concentrations given in the figure caption are final concentrations following mixing of the reagents. The spectrophotometric data were further analyzed with OriginLab software version 8."}, "[3]": {"molecular_target": "T2, retinoid isomerohydrolase (RPE65 isomerohydrolase) (Homo sapiens, UniProt Q16518)", "T2 sequence (Q16518 1-533)": "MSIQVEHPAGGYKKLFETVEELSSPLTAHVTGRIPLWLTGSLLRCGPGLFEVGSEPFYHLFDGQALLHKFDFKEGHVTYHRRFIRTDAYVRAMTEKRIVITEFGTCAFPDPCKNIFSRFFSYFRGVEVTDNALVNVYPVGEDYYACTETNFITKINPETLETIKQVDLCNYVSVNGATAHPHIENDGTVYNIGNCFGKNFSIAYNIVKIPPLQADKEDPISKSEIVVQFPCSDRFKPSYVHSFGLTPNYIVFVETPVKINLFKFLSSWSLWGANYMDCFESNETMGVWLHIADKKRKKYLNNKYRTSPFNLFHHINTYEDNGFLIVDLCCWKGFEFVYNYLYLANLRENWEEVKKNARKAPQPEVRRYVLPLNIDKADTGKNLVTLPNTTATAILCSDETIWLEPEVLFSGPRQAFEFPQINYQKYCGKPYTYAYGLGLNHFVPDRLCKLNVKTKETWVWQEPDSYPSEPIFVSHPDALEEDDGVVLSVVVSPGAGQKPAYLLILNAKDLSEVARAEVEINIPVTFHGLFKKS", "details": "non-palmitoylated, soluble, cytoplasmic RPE65; read-out: KD, direct binding to RPE65; cited from earlier work"}, "HRP [4]": {"molecular_target": "T1, HRP", "test": "Formation of verdoheme (P-670) from HRP Compound III, absorbance at 670 nm", "assay_type": "biochemical", "details": "12 μM A2E, alone or pre-complexed with SapB; 10 μM HRP, 100 μM H2O2", "method": "Here, and in light of the kinetic results of FIG. 4, we followed the absorbance change at 670 nm to test the hypothesis of whether A2E may be a suitable substrate for the HRP/H2O2 system.\nThe experiments were then repeated in the presence of A2E and SapB to examine their effect on P-670 formation.\nas §1"}, "arylsulfatase A (ASA)": {"molecular_target": "T3, arylsulfatase A (ASA) (Homo sapiens, UniProt P15289)", "T3 sequence (P15289 19-507)": "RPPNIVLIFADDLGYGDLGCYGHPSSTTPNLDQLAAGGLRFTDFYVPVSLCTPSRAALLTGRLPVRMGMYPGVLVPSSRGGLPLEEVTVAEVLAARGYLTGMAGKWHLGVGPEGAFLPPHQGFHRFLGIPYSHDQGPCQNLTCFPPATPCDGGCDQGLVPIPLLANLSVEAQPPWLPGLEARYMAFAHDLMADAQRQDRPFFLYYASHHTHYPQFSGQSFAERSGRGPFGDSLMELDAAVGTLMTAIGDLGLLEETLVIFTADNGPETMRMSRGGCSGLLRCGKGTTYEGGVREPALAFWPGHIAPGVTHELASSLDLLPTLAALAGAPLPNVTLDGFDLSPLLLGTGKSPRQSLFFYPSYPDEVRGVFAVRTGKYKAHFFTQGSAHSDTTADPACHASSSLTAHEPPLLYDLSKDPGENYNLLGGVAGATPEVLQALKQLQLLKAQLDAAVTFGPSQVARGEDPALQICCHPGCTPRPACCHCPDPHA", "details": "at a set time-point; cited from earlier work"}, "[5]": {"test": "Blue-light photo-degradation of A2E", "assay_type": "physicochemical", "details": "bound to SapB (2 sapB:1 A2E) versus free; 30 min, pH 5.5", "excerpt": "We screened A2E photostability to blue light, whether in its free form or complexed to SapB (2 sapB:1 A2E) (see supplementary materials for details) with and without 1% DMSO (a known facilitator of blue induced photobleaching). […] The fact that SapB might play a role in mitigating photo-bleaching and providing a source of subsequent fluorescence is an interesting possibility, particularly in light of recent studies by Yamamoto et al. showing that SapB could regulate CoQ10 movement/levels within HepG2 cells.\nIn order to further examine the protective effects of sapB towards A2E in terms of photooxidation, additional ultraviolet spectroscopy was performed on a Varian Cary 50B Spectrophotomer. The stock solutions were prepared as follows: SapB in 50 mM phosphate buffer, pH 5.5 and A2E in 100% methanol or 100% DMSO. The samples were exposed to blue light in five-minute increments and monitored after each exposure for a total of 30 min. The data was further analyzed with OriginLab software version 8. The final product was examined via mass spectroscopy to identify products as a result of blue light exposure. Evidence for photooxidized species are clearly indicated."}},
  "data": [
    {"smiles": "CC(C=CC1=C(C)CCCC1(C)C)=CC=CC(C)=Cc1cc(C=CC=C(C)C=CC2=C(C)CCCC2(C)C)cc[n+]1CCO", "note": "[A2E, N-retinylidene-N-retinylethanolamine]", "values": [
      {"measurement": "ligand activity at RAR", "setting": "[1]", "value": "endogenous ligand"},
      {"measurement": "absorbance change at 340 nm, A2E pre-complexed with SapB", "setting": "HRP [2]; 2:1 SapB:A2E ratio, + HRP + H2O2", "value": "very similar to that of a control mixture of HRP and H2O2"},
      {"measurement": "absorbance, sequences (SapB+A2E)complex+CoQ10+HRP+H2O2 or (SapB+CoQ10)complex+A2E+HRP+H2O2", "setting": "HRP [2]; SapB and CoQ10 present", "value": "absorbance values similar to the sequence (SapB+A2E)complex+HRP+H2O2"},
      {"measurement": "damage to A2E, sequence (SapB+HRP)complex+A2E+H2O2", "setting": "HRP [2]; SapB pre-complexed with HRP", "value": "partial damage"},
      {"measurement": "absorbance of A2E at 340 nm after H2O2 added to A2E containing HRP", "setting": "HRP [2]; free A2E", "value": "decrease in the absorbance value"},
      {"measurement": "Kd", "setting": "[3]", "value": 250, "unit": "nM"},
      {"measurement": "amount of verdoheme (P-670) formation", "setting": "HRP [4]", "value": "significant reduction"},
      {"measurement": "interference with ASA specific activity", "setting": "arylsulfatase A (ASA)", "value": "does not interfere"},
      {"measurement": "A2E degradation over time under blue light (decline in slopes)", "setting": "[5]", "value": "significantly reduced"}
    ]}
  ]
}
